Source: US6423689B1, “Peptidyl calcium channel blockers” (Warner-Lambert Company, priority 1997, dated 2002)
pIC50: −log10 of the molar value. *1 amine or outer side, *2 acyl side, *3 side chain or, on linkers, in order; H or OH if unused. Where a SMILES comes first, the peptide text is derived from it. The star is where a group is joined. Piperidide = C1CCN(*)CC1; CO = O=C([*:1])[*:2]; Bn = c1ccc(C*)cc1; OtBu = CC(C)(C)O*

Target: T1, N-type Ca2+ channels in IMR-32 cells (Homo sapiens, UniProt Q00975)
T1 construct: host or cells: IMR-32 cells, differentiated with dibutyryl cAMP and bromodeoxyuridine
Test: Inhibition of N-type calcium flux in IMR-32 cells (Indo-1 fluorescence, nitrendipine present)
Format: cell-based
Conditions: for pIC50: IMR-32 cells, 5 μM nitrendipine, K+ depolarization; for inhibition at 1 µM / inhibition at 10 µM: IMR-32
In short: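 Differentiated IMR-32 cells (7–13 days) were loaded with 5 μM Indo-1 AM, preincubated with compound for 10 min at 30° C, and depolarized with KCl/CaCl2 stimulation solution, with 5 μM nitrendipine blocking L-channels. Peak-minus-basal 400/490 nm emission ratio was plotted against drug concentration, and IC50 came from four-parameter logistic fits.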

T1 sequence (Q00975 whole entry): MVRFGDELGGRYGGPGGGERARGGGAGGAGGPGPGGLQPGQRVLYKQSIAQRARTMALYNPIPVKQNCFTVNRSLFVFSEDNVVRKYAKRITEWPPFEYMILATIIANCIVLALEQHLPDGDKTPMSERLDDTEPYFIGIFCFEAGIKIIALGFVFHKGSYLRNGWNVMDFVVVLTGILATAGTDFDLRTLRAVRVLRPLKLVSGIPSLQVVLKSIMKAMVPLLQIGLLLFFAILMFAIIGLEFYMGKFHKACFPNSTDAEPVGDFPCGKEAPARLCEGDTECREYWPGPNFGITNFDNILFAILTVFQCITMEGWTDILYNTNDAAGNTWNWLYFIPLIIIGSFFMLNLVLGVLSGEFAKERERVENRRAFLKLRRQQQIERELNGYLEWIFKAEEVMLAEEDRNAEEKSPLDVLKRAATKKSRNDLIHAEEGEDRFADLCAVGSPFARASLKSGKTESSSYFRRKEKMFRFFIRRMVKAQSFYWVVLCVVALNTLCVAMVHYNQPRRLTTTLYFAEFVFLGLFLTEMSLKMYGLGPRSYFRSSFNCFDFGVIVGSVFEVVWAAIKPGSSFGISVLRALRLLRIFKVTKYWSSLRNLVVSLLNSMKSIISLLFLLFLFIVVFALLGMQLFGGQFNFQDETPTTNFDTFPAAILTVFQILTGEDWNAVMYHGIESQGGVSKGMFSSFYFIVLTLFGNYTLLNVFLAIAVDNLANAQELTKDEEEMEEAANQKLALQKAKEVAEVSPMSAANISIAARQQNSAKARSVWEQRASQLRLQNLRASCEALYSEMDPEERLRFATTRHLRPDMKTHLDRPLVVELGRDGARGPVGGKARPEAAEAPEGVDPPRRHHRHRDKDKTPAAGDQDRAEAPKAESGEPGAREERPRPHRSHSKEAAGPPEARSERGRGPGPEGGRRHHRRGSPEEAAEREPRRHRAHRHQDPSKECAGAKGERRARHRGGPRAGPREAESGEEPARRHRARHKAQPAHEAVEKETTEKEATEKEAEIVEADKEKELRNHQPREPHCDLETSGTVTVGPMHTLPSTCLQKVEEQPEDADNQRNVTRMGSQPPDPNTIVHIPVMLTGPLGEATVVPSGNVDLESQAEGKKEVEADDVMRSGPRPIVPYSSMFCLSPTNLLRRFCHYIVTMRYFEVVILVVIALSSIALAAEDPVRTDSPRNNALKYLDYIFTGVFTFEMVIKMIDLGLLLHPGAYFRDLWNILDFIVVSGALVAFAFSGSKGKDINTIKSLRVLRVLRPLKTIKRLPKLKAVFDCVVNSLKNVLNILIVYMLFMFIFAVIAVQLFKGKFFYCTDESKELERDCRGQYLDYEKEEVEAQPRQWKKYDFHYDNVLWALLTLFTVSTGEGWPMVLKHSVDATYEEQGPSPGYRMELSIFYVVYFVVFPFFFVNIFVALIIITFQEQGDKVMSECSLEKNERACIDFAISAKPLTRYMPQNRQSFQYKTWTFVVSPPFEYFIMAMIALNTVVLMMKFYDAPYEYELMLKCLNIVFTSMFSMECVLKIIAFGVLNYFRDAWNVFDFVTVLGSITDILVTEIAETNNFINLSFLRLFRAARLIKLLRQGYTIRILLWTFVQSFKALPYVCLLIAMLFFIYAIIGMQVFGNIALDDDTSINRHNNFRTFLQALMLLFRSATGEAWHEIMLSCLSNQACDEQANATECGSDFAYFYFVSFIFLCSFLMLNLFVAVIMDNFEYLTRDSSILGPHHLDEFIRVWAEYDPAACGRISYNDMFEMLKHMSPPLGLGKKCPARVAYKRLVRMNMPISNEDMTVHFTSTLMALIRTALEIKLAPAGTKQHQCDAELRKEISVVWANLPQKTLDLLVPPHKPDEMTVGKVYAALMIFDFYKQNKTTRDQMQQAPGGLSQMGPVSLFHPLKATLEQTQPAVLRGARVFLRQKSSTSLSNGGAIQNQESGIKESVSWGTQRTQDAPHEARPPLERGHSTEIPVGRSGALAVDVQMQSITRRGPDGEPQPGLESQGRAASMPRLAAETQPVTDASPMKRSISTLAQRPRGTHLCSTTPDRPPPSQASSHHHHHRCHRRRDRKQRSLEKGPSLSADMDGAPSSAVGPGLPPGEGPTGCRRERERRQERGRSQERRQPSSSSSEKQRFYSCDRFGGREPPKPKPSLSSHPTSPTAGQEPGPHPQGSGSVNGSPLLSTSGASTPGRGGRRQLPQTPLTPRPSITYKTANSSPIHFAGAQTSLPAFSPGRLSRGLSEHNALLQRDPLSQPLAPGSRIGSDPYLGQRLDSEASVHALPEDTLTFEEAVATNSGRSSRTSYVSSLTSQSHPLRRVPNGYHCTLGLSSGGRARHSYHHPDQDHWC
T1 sequence (P54289 25-956 partner limits assumed): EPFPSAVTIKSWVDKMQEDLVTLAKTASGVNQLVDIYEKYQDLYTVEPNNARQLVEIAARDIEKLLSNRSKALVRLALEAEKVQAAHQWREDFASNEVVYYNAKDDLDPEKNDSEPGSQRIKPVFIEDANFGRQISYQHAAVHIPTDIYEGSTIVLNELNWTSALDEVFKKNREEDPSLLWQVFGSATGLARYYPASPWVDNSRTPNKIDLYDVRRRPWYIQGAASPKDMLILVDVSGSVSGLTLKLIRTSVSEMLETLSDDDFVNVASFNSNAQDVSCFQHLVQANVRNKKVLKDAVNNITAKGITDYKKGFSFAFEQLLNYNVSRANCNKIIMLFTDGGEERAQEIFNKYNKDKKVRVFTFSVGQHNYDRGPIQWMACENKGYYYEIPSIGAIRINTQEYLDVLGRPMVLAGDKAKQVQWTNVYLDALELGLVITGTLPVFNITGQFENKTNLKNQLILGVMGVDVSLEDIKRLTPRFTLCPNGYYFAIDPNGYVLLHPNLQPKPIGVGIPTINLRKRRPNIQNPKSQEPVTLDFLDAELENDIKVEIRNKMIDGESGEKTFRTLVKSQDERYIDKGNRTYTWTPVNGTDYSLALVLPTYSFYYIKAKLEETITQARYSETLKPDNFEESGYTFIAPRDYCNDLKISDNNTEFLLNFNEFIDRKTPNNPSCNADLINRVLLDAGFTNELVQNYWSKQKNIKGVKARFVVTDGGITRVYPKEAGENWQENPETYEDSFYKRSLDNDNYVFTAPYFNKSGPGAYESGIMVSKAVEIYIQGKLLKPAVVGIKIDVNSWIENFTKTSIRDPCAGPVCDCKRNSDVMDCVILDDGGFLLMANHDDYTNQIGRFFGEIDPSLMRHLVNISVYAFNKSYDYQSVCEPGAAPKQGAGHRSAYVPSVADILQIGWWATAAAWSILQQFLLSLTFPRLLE
T1 sequence (P54289 957-1103 partner limits assumed): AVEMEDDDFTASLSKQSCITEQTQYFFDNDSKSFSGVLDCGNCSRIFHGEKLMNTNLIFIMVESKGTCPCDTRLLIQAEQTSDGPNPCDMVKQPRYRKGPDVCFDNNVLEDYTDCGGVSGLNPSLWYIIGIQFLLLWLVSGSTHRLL
T1 sequence (P54284 whole entry partner): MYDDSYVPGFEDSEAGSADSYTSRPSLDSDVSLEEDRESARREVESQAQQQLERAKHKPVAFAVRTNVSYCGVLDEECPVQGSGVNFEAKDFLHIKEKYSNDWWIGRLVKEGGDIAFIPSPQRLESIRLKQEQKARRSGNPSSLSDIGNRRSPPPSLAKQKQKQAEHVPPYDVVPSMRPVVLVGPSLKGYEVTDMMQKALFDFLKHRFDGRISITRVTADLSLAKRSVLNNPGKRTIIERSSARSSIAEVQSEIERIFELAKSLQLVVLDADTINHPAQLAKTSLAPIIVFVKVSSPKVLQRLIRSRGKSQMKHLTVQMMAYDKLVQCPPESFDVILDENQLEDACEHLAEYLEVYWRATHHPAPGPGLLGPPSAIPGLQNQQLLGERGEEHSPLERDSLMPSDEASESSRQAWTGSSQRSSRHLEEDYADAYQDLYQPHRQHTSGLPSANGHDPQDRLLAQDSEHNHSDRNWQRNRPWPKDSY

Row | Inhibition of Calcium Flux in IMR-32 Cells % Inhibition at 1 μM | Inhibition of Calcium Flux in IMR-32 Cells % Inhibition at 10 μM | pIC50 | inhibition at 1 µM | inhibition at 10 µM | SMILES
1 | 30% | 80% | – | – | – | CCC(CO)(CO)NC(=O)[C@H](Cc1ccc(OCc2ccccc2)cc1)NC(=O)[C@H](CC(C)C)NC(=O)N1CCCCCC1 (relative stereo) [Example 229, [S-(R*,R*)]-Azepane-1-carboxylic acid {1-[2-(4-benzyloxy-phenyl)-1-(1,1-bis-hydroxymethyl-propylcarbamoyl)-ethylcarbamoyl]-3-methyl-butyl}-amide]
2 | 20% | 64% | – | – | – | CC(C)C[C@H](NC(=O)N1CCCCCC1)C(=O)N[C@@H](Cc1ccc(OCc2ccccc2)cc1)C(=O)N1CCC(O)CC1 (relative stereo) [Example 235, [S-(R*,R*)]-Azepane-1-carboxylic acid {1-[1-(4-benzyloxy-benzyl)-2-(4-hydroxy-piperidin-1-yl)-2-oxo-ethylcarbamoyl]-3-methyl-butyl}-amide]
3 | 50% | 93% | – | – | – | CC(C)C[C@H](NC(=O)N1CCCCCC1)C(=O)N[C@@H](Cc1ccc(OCc2ccccc2)cc1)C(=O)NCCC#N (relative stereo) [Example 236, [S-(R*,R*)]-Azepane-1-carboxylic acid {1-[2-(4-benzyloxy-phenyl)-1-(2-cyano-ethylcarbamoyl)-ethylcarbamoyl]-3-methyl-butyl}-amide]
4 | 63% | 86% | 6.12 | – | – | CC(C)C[C@H](NC(=O)N1CCCCCC1)C(=O)N[C@@H](Cc1ccc(OCc2ccccc2)cc1)C(=O)N1CCN(c2ccc(F)cc2)CC1 (relative stereo) [Example 240, [S-(R*,R*)]-Azepane-1-carboxylic acid (1-{1-(4-benzyloxy-benzyl)-2-[4-(4-fluoro-phenyl)-piperazin-1-yl]-2-oxo-ethylcarbamoyl}-3-methyl-butyl)-amide]
5 | 53% | 83% | – | – | – | CC(C)C[C@H](NC(=O)N1CCCCCC1)C(=O)N[C@@H](Cc1ccc(OCc2ccccc2)cc1)C(=O)NCc1cccc(I)c1 (relative stereo) [Example 241, [S-(R*,R*)]-Azepane-1-carboxylic acid {1-[2-(4-benzyloxy-phenyl)-1-(3-iodo-benzylcarbamoyl)-ethylcarbamoyl]-3-methyl-butyl}-amide]
6 | – | 33% | – | – | – | CC(C)C[C@H](NC(=O)N1CCCCCC1)C(=O)N[C@@H](Cc1ccc(OCc2ccccc2)cc1)C(=O)Nc1ccc(N2CCCCC2)cc1 (relative stereo) [Example 260, [S-(R*,R*)]-Azepane-1-carboxylic acid {1-[2-(4-benzyloxy-phenyl)-1-(4-piperidin-1-yl-phenylcarbamoyl)-ethylcarbamoyl]-3-methyl-butyl}-amide]
7 | – | – | 5.70 | – | – | CC(C)C[C@H](NC(=O)N1CCCCCC1)C(=O)N[C@@H](Cc1ccc(OCc2ccccc2)cc1)C(=O)c1cc[nH]n1 (relative stereo) [Example 261, [S-(R*,R*)]-Azepane-1-carboxylic acid {1-[2-(4-benzyloxy-phenyl)-1-(pyrazole-3-carbonyl)-ethylcarbamoyl]-3-methyl-butyl}-amide]
8 | 1% | 65% | – | – | – | COc1cc(C(=O)NC(CC(C)C)C(=O)N[C@@H](Cc2ccc(OCc3ccccc3)cc2)C(=O)OC(C)(C)C)cc(OC)c1OC (stereo in doubt) [Example 92, [S(R*,R*)]-3-(4-Benzyloxy-phenyl)-2-[4-methyl-2-(3,4,5-trimethoxy-benzoylamino)-pentanoylamino]-propionic acid tert-butyl ester]
9 | – | – | 6.13 | 62% | 95% | CSCCC(CO)NC(=O)[C@H](Cc1ccc(OCc2ccccc2)cc1)NC(=O)C(CC(C)C)NC(=O)N1CCCCCC1 (stereo in doubt) [Example 238, Azepane-1-carboxylic acid {(R)-1-[(S)-2-(4-benzyloxy-phenyl)-(S)-1-(1-hydroxymethyl-3-methylsulfanyl-propylcarbamoyl)-ethylcarbamoyl]-3-methyl-butyl}-amide]
10 | – | – | 6.14 | 63% | 98% | CC(C)[C@H](NC(=O)N1CCCCCC1)C(=O)N[C@@H](Cc1ccc(OCc2ccccc2)cc1)C(=O)OC(C)(C)C [Example 6, [S-(R*,R*)]-2-{2-[(Azepane-1-carbonyl)-amino]-3-methyl-butyrylamino}-3-(4-benzyloxy-phenyl)-propionic acid tert-butyl ester]
11 | – | – | 6.09 | 51% | 92% | CC(C)C[C@H](NC(=O)N1CCCCCC1)C(=O)N[C@@H](Cc1ccc(OCc2ccc(C#N)cc2)cc1)C(=O)OC(C)(C)C [Example 27, [S-(R*,R*)]-2-{2-[(Azepane-1-carbonyl)-amino]-4-methyl-pentanoylamino}-3-[4-(4-cyano-benzyloxy)-phenyl]-propionic acid tert-butyl ester]
12 | – | – | 6.09 | 52% | 86% | COc1ccc(COc2ccc(C[C@H](NC(=O)[C@H](CC(C)C)NC(=O)N3CCCCCC3)C(=O)OC(C)(C)C)cc2)cc1 [Example 32, [S-(R*,R*)]-2-{2-[(Azepane-1-carbonyl)-amino]-4-methyl-pentanoylamino}-3-[4-(4-methoxy-benzyloxy)-phenyl]-propionic acid tert-butyl ester]
13 | – | – | 5.66 | 48% | 79% | CC(C)C[C@H](NC(=O)N1CCCCC1)C(=O)N[C@@H](Cc1ccc(OCc2ccccc2)cc1)C(=O)OC(C)(C)C [Example 33, [S-(R*,R*)]-3-(4-Benzyloxy-phenyl)-2-{4-methyl-2-[(piperidine-1-carbonyl)-amino]-pentanoylamino}-propionic acid tert-butyl ester] ({Piperidide-CO}-Leu-Tyr(Bn)-OtBu)
14 | – | – | – | 33% | – | CC(C)C[C@H](NC(=O)N[C@H](C)c1ccccc1)C(=O)N[C@@H](Cc1ccc(OCc2ccccc2)cc1)C(=O)OC(C)(C)C [Example 63, 3-(4-Benzyloxy-phenyl)-(S)-2-{4-methyl-(S)-2-[3-[(R)-1-phenyl-ethyl]-ureido]-pentanoylamino}-propionic acid tert-butyl ester]
15 | 42% | – | – | – | – | COC(=O)C(Cc1ccccc1)NC(=O)NC(CC(C)C)C(=O)NC(Cc1ccc(OCc2ccccc2)cc1)C(=O)OC(C)(C)C (stereo not drawn) [Example 66, [S-(R*,R*)]-3-(4-Benzyloxy-phenyl)-{2-[3-(1-methoxycarbonyl-2-phenyl-ethyl)-ureido]-4-methyl-pentanoylamino}-propionic acid tert-butyl ester] ({OMe-Phe-CO}-Leu-Tyr(Bn)-OtBu; configuration not given here)
16 | – | – | 5.96 | 50% | 96% | Cc1noc(C)c1S(=O)(=O)N[C@@H](CC(C)C)C(=O)N[C@@H](Cc1ccc(OCc2ccccc2)cc1)C(=O)OC(C)(C)C [Example 111, [S-(R*,R*)]-3-(4-Benzyloxy-phenyl)-2-[2-(3,5-dimethyl-isoxazole-4-sulfonylamino)-4-methyl-pentanoylamino]-propionic acid tert-butyl ester]
17 | – | – | 5.72 | – | – | O=C(NCCN1CCCCC1)[C@H](Cc1ccc(OCc2ccccc2)cc1)NC(=O)[C@@H]1CCCN1C(=O)N1CCCCCC1 [Example 152, [S-(R*,R*)]-1-(Azepane-1-carbonyl)-pyrrolidine-2-carboxylic acid [2-(4-benzyloxy-phenyl)-1-(2-piperidin-1-yl-ethylcarbamoyl)-ethyl]-amide]
18 | – | – | 5.43 | – | – | CC(C)(C)NC(=O)[C@H](Cc1ccc(OCc2ccccc2)cc1)NC(=O)[C@@H]1CCCN1C(=O)N1CCCCCC1 [Example 153, [S-(R*,R*)]-1-(Azepane-1-carbonyl)-pyrrolidine-2-carboxylic acid [2-(4-benzyloxy-phenyl)-1tert-butylcarbamoyl-ethyl]-amide]
19 | – | – | 5.02 | – | – | CSCC[C@H](NC(=O)N1CCCCCC1)C(=O)N[C@@H](Cc1ccc(OCc2ccccc2)cc1)C(=O)NCCN1CCCCC1 [Example 154, [S-(R*,R*)]-Azepane-1-carboxylic acid {1-[2-(4-benzyloxy-phenyl)-1-(2-piperidin-1-ylethylcarbamoyl)-ethylcarbamoyl]-3-methylsulfanyl-propyl}-amide]
20 | – | – | 5.60 | – | – | CSCC[C@H](NC(=O)N1CCCCCC1)C(=O)N[C@@H](Cc1ccc(OCc2ccccc2)cc1)C(=O)NC(C)(C)C [Example 155, [S-(R*,R*)]-Azepane1-carboxylic acid {1-[2-(4-benzyloxy-phenyl)-1-tert-butylcarbamoyl-ethylcarbamoyl]-3-methylsulfanyl-propyl}-amide]
21 | – | – | 5.28 | – | – | O=C(NCCN1CCCCC1)[C@H](Cc1ccc(OCc2ccccc2)cc1)NC(=O)[C@H](Cc1ccc(O)cc1)NC(=O)N1CCCCCC1 [Example 156, [S-(R*,R*)]-Azepane-1-carboxylic acid [1-[2-(4-benzyloxy-phenyl)-1-(2-piperidin-1-ylethylcarbamoyl)-ethylcarbamoyl]-2-(4-hydroxy-phenyl)-ethyl]-amide]
22 | – | – | 5.64 | – | – | O=C(NCCN1CCCCC1)[C@H](Cc1ccc(OCc2ccccc2)cc1)NC(=O)[C@H](Cc1ccc(Br)cc1)NC(=O)N1CCCCCC1 [Example 157, [S-(R*,R*)]-Azepane-1-carboxylic acid [1-[2-(4-benzyloxy-phenyl)-1-(2-piperidin-1-ylethylcarbamoyl)-ethylcarbamoyl]-2-(4-bromo-phenyl)-ethyl]-amide]
23 | – | – | 5.60 | – | – | CC(C)(C)NC(=O)[C@H](Cc1ccc(OCc2ccccc2)cc1)NC(=O)[C@H](Cc1ccc(O)cc1)NC(=O)N1CCCCCC1 [Example 160, [S-(R*,R*)]-Azepane-1-carboxylic acid [1-[2-(4-benzyloxy-phenyl)-1-tert-butylcarbamoyl-ethylcarbamoyl]-2-(4-hydroxy-phenyl)-ethyl]-amide]
